According to ChEMBL document CHEMBL5291721, “A preclinical secondary pharmacology resource illuminates target-adverse drug reaction associations of marketed drugs” (Nat Commun, 2023):

Key:
[1] = molecular target: Prostaglandin G/H synthase 1 (Homo sapiens, UniProt P23219); assay type: functional
[2] = molecular target: T1, Muscarinic acetylcholine receptor M1 (Homo sapiens, UniProt P11229); assay type: functional, cell-based
T1 sequence (P11229 whole entry): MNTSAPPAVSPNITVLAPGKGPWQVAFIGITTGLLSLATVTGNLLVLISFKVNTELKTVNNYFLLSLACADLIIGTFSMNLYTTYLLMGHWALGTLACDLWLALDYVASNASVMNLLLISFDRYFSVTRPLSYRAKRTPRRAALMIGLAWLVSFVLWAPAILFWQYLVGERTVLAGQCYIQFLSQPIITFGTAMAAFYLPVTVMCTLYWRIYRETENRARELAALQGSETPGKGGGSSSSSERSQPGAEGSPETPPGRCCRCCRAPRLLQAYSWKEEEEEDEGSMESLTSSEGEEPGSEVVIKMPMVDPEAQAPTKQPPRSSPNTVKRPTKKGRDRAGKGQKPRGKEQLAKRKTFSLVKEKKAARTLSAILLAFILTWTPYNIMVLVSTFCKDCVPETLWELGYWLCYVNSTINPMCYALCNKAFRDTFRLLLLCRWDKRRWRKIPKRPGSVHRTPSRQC

[3] = molecular target: T1, Muscarinic acetylcholine receptor M1; assay type: functional, cell-based; remark: listed apart in the source
[4] = molecular target: Vascular endothelial growth factor receptor 2 (Homo sapiens, UniProt P35968); assay type: functional
[5] = molecular target: T2, Muscarinic acetylcholine receptor M2 (Homo sapiens, UniProt P08172)
T2 sequence (P08172 whole entry): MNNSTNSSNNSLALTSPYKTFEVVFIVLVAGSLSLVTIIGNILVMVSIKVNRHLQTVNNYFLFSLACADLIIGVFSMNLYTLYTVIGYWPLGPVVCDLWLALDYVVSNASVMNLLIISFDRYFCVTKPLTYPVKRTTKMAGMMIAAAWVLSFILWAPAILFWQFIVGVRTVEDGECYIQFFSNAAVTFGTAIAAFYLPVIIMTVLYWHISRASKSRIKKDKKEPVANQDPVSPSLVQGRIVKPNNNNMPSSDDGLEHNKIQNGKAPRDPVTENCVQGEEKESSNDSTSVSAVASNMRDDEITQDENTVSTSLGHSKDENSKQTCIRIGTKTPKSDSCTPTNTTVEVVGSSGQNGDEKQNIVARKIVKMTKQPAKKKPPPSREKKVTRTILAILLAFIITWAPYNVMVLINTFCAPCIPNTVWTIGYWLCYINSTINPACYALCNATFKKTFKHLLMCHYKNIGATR

Mu-type opioid receptor = Mu-type opioid receptor (Homo sapiens, UniProt P35372)
[6] = molecular target: T3, Alpha-2A adrenergic receptor (Homo sapiens, UniProt P08913)
T3 sequence (P08913 whole entry): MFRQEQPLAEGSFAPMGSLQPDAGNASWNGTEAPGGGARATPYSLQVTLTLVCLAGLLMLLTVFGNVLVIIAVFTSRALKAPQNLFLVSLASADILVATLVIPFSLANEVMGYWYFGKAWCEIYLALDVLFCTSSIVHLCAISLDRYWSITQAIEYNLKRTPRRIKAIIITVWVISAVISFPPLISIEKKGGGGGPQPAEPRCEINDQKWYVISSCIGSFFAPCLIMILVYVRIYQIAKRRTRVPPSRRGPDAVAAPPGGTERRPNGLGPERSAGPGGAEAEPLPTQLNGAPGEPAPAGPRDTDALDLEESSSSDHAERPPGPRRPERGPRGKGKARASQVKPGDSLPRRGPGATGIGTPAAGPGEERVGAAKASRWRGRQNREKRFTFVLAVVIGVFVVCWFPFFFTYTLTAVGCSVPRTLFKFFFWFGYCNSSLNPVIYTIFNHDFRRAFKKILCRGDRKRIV

Thromboxane A2 receptor = molecular target: T4, Thromboxane A2 receptor (Homo sapiens, UniProt P21731); assay type: functional, cell-based
T4 sequence (P21731 whole entry): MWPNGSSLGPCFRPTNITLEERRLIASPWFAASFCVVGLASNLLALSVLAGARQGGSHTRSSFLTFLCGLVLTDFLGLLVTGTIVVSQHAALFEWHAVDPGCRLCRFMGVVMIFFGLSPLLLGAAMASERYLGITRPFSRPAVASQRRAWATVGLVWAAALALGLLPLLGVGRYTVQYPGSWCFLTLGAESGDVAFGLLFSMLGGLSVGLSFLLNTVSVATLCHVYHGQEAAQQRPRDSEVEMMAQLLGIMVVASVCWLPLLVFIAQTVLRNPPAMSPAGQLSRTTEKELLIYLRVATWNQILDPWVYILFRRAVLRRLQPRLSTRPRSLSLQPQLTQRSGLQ

[7] = molecular target: T5, Alpha-1A adrenergic receptor (Homo sapiens, UniProt P35348); assay type: functional, cell-based
T5 sequence (P35348 whole entry): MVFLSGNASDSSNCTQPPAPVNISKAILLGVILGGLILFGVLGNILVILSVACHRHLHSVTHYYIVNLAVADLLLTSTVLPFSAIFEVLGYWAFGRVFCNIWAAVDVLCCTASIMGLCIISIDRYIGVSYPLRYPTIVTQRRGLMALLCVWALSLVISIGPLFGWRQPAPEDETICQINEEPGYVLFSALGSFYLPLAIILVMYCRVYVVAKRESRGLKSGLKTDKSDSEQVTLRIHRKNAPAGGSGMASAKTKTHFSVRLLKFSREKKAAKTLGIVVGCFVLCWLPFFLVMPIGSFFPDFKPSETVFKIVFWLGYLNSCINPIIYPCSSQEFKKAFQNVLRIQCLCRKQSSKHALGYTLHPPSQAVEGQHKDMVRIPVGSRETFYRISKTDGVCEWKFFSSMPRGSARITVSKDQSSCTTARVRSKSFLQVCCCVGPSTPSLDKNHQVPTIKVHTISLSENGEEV

[8] = molecular target: Sodium-dependent serotonin transporter (Homo sapiens, UniProt P31645)
[9] = molecular target: 3',5'-cyclic-AMP phosphodiesterase 4A (Homo sapiens, UniProt P27815); assay type: functional
[10] = molecular target: Sodium-dependent noradrenaline transporter (Homo sapiens, UniProt P23975)
Also: assay procedure not described here.

Sequence of Sodium-dependent noradrenaline transporter (P23975 whole entry): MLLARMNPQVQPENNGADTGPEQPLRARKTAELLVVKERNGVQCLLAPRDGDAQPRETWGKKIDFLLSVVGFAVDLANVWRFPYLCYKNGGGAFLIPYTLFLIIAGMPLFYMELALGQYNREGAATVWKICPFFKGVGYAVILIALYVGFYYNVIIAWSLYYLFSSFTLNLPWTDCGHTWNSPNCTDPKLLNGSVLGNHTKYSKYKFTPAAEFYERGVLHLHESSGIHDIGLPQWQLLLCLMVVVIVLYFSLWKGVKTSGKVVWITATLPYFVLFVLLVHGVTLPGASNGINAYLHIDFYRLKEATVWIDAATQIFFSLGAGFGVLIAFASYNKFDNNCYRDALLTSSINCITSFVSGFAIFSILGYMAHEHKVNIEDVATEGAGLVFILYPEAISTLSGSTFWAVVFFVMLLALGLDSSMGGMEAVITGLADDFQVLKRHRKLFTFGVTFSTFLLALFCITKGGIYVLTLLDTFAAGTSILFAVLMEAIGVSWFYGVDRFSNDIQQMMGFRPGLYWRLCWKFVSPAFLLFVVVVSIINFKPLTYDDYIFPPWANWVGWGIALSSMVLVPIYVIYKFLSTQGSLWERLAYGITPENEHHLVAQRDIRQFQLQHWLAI
Sequence of Prostaglandin G/H synthase 1 (P23219 whole entry): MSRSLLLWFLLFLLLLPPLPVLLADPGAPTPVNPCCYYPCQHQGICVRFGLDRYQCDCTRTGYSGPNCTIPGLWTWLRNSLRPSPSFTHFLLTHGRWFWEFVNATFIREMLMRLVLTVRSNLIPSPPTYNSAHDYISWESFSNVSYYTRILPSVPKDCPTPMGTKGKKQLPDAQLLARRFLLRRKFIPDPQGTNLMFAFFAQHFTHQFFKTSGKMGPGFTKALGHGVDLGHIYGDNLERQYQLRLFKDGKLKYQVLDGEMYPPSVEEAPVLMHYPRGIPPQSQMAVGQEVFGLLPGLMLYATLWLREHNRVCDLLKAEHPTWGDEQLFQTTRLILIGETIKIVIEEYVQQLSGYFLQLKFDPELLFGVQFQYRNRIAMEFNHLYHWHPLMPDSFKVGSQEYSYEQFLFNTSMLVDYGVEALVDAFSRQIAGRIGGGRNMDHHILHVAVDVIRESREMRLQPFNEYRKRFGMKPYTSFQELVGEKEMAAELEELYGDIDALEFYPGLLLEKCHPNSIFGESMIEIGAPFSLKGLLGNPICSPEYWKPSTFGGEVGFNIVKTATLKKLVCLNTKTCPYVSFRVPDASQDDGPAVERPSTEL
Sequence of 3',5'-cyclic-AMP phosphodiesterase 4A (P27815 whole entry): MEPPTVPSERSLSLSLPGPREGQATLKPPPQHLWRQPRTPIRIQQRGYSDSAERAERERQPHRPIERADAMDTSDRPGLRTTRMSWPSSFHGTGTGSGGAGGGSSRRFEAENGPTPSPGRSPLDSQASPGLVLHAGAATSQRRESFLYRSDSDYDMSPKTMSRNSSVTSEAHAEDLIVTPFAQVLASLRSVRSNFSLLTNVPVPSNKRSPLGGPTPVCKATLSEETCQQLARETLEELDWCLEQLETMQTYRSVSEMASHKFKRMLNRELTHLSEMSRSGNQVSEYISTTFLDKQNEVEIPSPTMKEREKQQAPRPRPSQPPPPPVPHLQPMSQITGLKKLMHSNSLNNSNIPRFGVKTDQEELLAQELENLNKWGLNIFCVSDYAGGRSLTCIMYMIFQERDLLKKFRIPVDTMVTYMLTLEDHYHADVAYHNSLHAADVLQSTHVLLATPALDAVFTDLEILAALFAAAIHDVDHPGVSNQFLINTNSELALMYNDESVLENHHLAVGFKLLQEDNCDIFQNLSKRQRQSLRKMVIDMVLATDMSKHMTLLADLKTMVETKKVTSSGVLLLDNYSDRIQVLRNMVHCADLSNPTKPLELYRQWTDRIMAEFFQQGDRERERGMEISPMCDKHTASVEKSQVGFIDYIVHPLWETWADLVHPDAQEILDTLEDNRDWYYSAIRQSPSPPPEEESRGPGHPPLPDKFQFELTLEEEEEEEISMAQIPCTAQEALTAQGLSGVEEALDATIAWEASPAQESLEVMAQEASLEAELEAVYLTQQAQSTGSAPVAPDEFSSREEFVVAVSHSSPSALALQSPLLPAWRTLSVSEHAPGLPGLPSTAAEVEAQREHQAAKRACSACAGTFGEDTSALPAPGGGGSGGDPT
Sequence of Mu-type opioid receptor (P35372 whole entry): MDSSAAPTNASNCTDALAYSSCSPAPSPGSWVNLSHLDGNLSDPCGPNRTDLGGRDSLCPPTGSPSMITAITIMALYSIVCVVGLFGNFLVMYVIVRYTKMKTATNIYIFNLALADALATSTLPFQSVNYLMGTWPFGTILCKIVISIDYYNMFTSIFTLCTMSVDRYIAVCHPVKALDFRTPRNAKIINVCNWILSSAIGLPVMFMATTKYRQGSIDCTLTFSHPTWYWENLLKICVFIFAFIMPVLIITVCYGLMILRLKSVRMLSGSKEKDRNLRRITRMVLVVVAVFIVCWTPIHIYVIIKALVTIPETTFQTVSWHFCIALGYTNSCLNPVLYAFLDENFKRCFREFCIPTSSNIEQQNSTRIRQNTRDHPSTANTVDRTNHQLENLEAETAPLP
Sequence of Sodium-dependent serotonin transporter (P31645 whole entry): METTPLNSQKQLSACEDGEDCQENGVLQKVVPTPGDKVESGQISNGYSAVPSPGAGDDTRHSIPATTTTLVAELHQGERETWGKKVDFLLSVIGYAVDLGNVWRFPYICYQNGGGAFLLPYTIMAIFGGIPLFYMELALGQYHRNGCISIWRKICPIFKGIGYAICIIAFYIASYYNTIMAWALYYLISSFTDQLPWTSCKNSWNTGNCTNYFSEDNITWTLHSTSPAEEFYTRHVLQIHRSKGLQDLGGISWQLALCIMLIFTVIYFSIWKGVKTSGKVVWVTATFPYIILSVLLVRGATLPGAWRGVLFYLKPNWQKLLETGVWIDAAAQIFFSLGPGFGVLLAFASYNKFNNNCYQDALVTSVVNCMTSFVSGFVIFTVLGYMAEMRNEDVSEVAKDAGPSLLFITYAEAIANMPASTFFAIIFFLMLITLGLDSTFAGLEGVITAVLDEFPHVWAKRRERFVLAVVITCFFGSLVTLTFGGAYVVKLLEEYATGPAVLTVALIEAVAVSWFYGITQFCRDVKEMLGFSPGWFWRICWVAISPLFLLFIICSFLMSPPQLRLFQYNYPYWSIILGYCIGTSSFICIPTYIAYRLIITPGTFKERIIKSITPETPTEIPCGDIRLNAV
Sequence of Vascular endothelial growth factor receptor 2 (P35968 whole entry): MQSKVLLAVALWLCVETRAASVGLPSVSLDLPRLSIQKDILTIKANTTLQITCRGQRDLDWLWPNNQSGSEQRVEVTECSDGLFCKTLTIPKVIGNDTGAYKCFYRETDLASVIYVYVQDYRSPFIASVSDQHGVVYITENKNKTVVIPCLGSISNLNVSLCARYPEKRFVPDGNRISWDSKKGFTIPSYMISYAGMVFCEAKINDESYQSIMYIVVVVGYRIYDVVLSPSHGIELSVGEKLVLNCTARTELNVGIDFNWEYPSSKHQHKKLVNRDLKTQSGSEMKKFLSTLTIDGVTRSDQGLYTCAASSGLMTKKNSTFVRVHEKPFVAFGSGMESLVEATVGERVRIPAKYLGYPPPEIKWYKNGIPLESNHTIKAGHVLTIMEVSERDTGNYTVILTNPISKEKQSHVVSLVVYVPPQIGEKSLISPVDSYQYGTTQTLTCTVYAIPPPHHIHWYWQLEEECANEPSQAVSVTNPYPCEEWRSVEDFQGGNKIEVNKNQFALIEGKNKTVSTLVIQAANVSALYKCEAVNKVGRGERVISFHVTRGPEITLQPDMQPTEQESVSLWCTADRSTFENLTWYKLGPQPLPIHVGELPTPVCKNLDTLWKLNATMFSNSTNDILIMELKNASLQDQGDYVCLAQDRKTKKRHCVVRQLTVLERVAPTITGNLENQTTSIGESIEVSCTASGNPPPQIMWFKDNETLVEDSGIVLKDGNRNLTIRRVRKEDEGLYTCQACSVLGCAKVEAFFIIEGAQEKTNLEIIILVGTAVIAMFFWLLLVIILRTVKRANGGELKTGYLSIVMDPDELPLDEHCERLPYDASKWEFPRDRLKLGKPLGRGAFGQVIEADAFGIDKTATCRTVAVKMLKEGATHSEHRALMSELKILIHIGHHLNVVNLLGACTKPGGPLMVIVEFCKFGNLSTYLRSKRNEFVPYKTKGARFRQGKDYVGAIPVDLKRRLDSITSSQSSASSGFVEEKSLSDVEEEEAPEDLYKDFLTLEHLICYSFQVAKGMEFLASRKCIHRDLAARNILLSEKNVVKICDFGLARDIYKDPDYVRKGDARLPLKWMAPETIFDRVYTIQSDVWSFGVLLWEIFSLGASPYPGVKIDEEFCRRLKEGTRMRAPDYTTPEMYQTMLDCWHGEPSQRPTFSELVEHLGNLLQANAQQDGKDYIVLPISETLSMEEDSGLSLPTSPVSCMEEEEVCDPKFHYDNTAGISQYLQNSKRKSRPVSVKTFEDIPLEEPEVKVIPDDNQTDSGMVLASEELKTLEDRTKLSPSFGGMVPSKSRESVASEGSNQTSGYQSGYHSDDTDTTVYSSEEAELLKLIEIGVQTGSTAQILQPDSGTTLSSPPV

SMILES | AC50 [1] | AC50 [2] | AC50 [3] | AC50 [4] | AC50 [5] | AC50 (Mu-type opioid receptor) | AC50 [6] | AC50 (Thromboxane A2 receptor) | AC50 [7] | AC50 [8] | AC50 [9] | AC50 [10]
Cc1cc(OP(=O)(O)O)c2ccccc2c1OP(=O)(O)O [MENADIOL SODIUM DIPHOSPHATE] | > 30 µM | > 30 µM | > 30 µM | > 30 µM | > 30 µM | > 30 µM | > 30 µM | > 30 µM | > 30 µM | > 30 µM | > 30 µM | > 30 µM
CC(=O)[C@@]1(O)CC[C@H]2[C@@H]3C=C(C)C4=CC(=O)CC[C@]4(C)[C@H]3CC[C@@]21C | > 30 µM | > 30 µM | 15.3 µM | > 30 µM | > 30 µM | > 30 µM | > 30 µM | > 30 µM | > 30 µM | > 30 µM | > 30 µM | > 30 µM
CC(=O)Oc1c(C)c(C)c2c(c1C)CC[C@@](C)(CCC[C@H](C)CCC[C@H](C)CCCC(C)C)O2 | > 30 µM | > 30 µM | > 30 µM | > 30 µM | > 30 µM | > 30 µM | > 30 µM | > 30 µM | > 30 µM | > 30 µM | 9.38 µM | > 30 µM
CCOC(=O)/C=C1\SC(N2CCCCC2)C(=O)N1C (configuration not stated) [ETOZOLIN] | > 30 µM | > 30 µM | > 30 µM | > 30 µM | > 30 µM | > 30 µM | > 30 µM | > 30 µM | > 30 µM | > 30 µM | > 30 µM | > 30 µM
Cc1cc(NS(=O)(=O)c2ccc(N)cc2)nc(C)n1 [SULFISOMIDINE] | > 30 µM | > 30 µM | > 30 µM | > 30 µM | > 30 µM | > 30 µM | > 30 µM | > 30 µM | > 30 µM | > 30 µM | 3.58 µM | > 30 µM
CCOc1ccccc1C(N)=O [ETHENZAMIDE] | > 30 µM | > 30 µM | > 30 µM | > 30 µM | > 30 µM | > 30 µM | > 30 µM | > 30 µM | > 30 µM | > 30 µM | > 30 µM | > 30 µM
CCCNC(C)C(=O)Nc1c(C)csc1C(=O)OC (configuration not stated) [ARTICAINE] | > 30 µM | > 30 µM | > 30 µM | > 30 µM | > 30 µM | > 30 µM | > 30 µM | > 30 µM | > 30 µM | > 30 µM | > 30 µM | > 30 µM
CC(C)COC(=O)OCN1C(=O)CN(CCN2CC(=O)N(COC(=O)OCC(C)C)C(=O)C2)CC1=O [SOBUZOXANE] | > 30 µM | > 30 µM | > 30 µM | > 30 µM | > 30 µM | > 30 µM | > 30 µM | > 30 µM | > 30 µM | > 30 µM | > 30 µM | > 30 µM
N=c1ccn2c(n1)O[C@H]1[C@H](O)[C@@H](CO)O[C@H]12 [ANCITABINE] | > 30 µM | > 30 µM | > 30 µM | > 30 µM | > 30 µM | > 30 µM | > 30 µM | > 30 µM | > 30 µM | > 30 µM | > 30 µM | > 30 µM
NC1=NCC2c3ccccc3Cc3ccccc3N12 (configuration not stated) [EPINASTINE] | > 30 µM | > 30 µM | > 30 µM | > 30 µM | > 30 µM | 17.4 µM | 0.253 µM | > 30 µM | 2.53 µM | 10.3 µM | > 30 µM | 4.58 µM
OC(CCN1CCCCC1)(c1ccccc1)c1ccccc1 [PRIDINOL] | > 30 µM | > 30 µM | 0.0824 µM | > 30 µM | 0.129 µM | 19.4 µM | > 30 µM | > 30 µM | > 30 µM | > 30 µM | > 30 µM | > 30 µM
CC[C@H]1CN2CC[C@H]1C[C@H]2[C@H](O)c1ccnc2ccc(OC)cc12 [HYDROQUININE] | > 30 µM | > 30 µM | > 30 µM | > 30 µM | 23.4 µM | 8.13 µM | 3.59 µM | > 30 µM | > 30 µM | 3.95 µM | > 30 µM | > 30 µM
CC(=O)c1ccc2c(c1)N(CCCN(C)C)c1ccccc1S2 [ACEPROMAZINE] | > 30 µM | > 30 µM | 0.151 µM | > 30 µM | 0.204 µM | 2.42 µM | 0.418 µM | > 30 µM | 0.003 µM | 0.145 µM | > 30 µM | 0.161 µM
CCN(CC)CCc1nc(-c2ccccc2)no1 [OXOLAMINE] | > 30 µM | > 30 µM | > 30 µM | > 30 µM | > 30 µM | > 30 µM | > 30 µM | > 30 µM | > 30 µM | > 30 µM | > 30 µM | > 30 µM
OC[C@@H](O)[C@H](O)[C@@H](O)CO [XYLITOL] | > 30 µM | > 30 µM | > 30 µM | > 30 µM | > 30 µM | > 30 µM | > 30 µM | > 30 µM | > 30 µM | > 30 µM | > 30 µM | > 30 µM
Clc1ccc(C(OCCN2CCCCC2)c2ccccc2)cc1 (configuration not stated) [CLOPERASTINE] | > 30 µM | > 30 µM | 0.551 µM | > 30 µM | 0.331 µM | 13.6 µM | 2.72 µM | > 30 µM | 1.27 µM | 15.4 µM | > 30 µM | 6.39 µM
